Legend:
[1] = target: T1, human progesterone receptor (Homo sapiens, UniProt P06401); experiment: Progesterone receptor binding assay, human PR (CEREP); conditions: 3H-R5020 as ligand, MCF7 cells as source of PR; for Ki: read-out: Human PR binding (pKi) (converted)
T1 sequence (P06401 679-933 limits assumed): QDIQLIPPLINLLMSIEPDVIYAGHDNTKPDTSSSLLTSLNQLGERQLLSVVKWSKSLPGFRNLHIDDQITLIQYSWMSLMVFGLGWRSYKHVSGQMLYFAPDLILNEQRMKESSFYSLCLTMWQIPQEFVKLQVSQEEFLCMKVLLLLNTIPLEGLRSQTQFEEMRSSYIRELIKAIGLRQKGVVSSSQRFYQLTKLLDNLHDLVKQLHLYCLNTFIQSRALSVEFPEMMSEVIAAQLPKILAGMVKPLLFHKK
Protocol: The progesterone receptor (PR) binding assays were performed at CEREP (Celle I'Evescault, France).
The binding to the human progesterone receptor (Assay Cat No: Progesterone receptor-814h) was be measured using 3H-R5020 as ligand and MCF7 cells as the source of progesterone receptor. The assay is performed as described by Eckert & Katzenellenbogen [1982]. The binding to the bovine progesterone receptor (Assay Cat No: Progesterone receptor-814) was measured using 3H-R5020 as ligand and uterus tissue as the source of progesterone receptor. The assay was performed as described by Hurd & Moudgil [1988].
The results of the receptor binding assay are presented as the individual pKi values, which were determined by measuring the binding activity to the human or bovine PR, as indicated, for a concentration range of each compound.

[2] = tested on: T47D human breast carcinoma cells; experiment: cells; format: cell-based; conditions: for activation at 0.1 µM / inhibition at 0.1 µM / EC50 / IC50: Homo sapiens, T47D; for activation at 0.1 µM: 48 h, read-out: PS [100 nM] (% stimulation); for inhibition at 0.1 µM: read-out: PI [100 nM] (% inhibition); for EC50: read-out: pEC50 (converted); for IC50: read-out: pIC50 (converted); for PS [100 nM] (% stimulation): agonistic mode, alkaline phosphatase induction (100% = 1 nM Dydrogesterone); for PS [100 nM] (% stimulation) / PI [100 nM] (% inhibition): compound 100 nM; for PI [100 nM] (% inhibition): antagonistic mode, inhibition of alkaline phosphatase induction by 1 nM Dydrogesterone
Protocol: The progesterone-dependent modulation of alkaline phosphatase expression was examined using T47D human breast carcinoma cells [Keydar et al., 1979]. The assay was performed as previously described by Di Lorenzo et al. (1991) with the modification of using Dydrogesterone as comparative progestin to determine the antagonistic and agonistic activity.
The cell line was purchased from CLS Cell Lines Service (Hildastrasse 21, D-69214 Eppelheim, Germany). In brief, the cells were plated in 96-well plates at 40,000 cells/well using the following growth medium: RPMI 1640 with: 10% FBS, 1 mM Sodium Pyruvat MEM, 10 mM Hepes, 0.01 mg/ml Bovine insulin, and 25 μg/ml Gentamycin. After 24 h of cultivation, the growth medium was replaced with medium containing 2% fetal bovine serum and the test compounds were added to each well to achieve the appropriate compound concentration: For determination of agonistic activity only the test compounds were added; for measurement of antagonistic activity the test compounds and additionally Dydrogesterone as standard progesterone agonist was added to a final concentration of 1 nM. After 48 h of cultivation, the medium was removed and the cells were washed with 200 μl of Dulbecco's phosphate-buffered saline without calcium and magnesium (PBS(−)). Then the cells were fixed with 3.7% formaldehyde in phosphate-buffered saline for 15 min at 22° C. After washing the cells with PBS, 100 μl of a […] (pNPP) solution (pNPP Liquid Substrate System; Sigma) was added to each well and incubated for 2 h at room temperature protected from light. The reaction was stopped with 100 μl 1N NaOH and the absorbance was measured with a spectrophotometer (Victor, Perkin Elmer) at 405 nm. The results are expressed as alkaline phosphatase induction (as 100% with 1 nM Dydrogesterone) or inhibition (against alkaline phosphatase induction by 1 nM Dydrogesterone) at a certain concentration of test compound.
% stimulation=(effect compound−basal)/(effect dydro 1 nM−basal)*100% inhibition of 1 nM Dydro=100*{1-[(effect compound−basal)/(effect dydro 1 nM−basal)]}
For each compound the % inhibition (PI) and % stimulation (PS), respectively, at a compound concentration of 100 nM was determined. For selected compounds, the corresponding values were measured for several different concentrations, and subsequently were plotted against the concentration of the test compound, and used to calculate the IC50 value (for the antagonistic potency; the IC50 value is the concentration (nM), required to reduce the maximal response by 50%) and EC50 values (for the agonistic potency; the EC50 value is the effective concentration (nM) that produced 50% of the maximum response), respectively.

Compound: CC(=O)[C@H]1CC[C@H]2[C@@H]3C=CC4=CC(=O)CC[C@@]4(C)[C@@H]3[C@@H](OC(=O)Nc3ccc4c(c3)OCO4)C[C@]12C [Compound No. 13, Benzo[1,3]dioxol-5-yl-carbamic acid dydrogesterone-11β-yl ester]
- Ki [1]: ≥ 631 nM
- activation at 0.1 µM [2]: 5%
- inhibition at 0.1 µM [2]: 73%
- EC50 [2]: 398 nM
- IC50 [2]: 31.6 nM

Compound: COc1cc(NC(=O)O[C@H]2C[C@]3(C)[C@@H](C(C)=O)CC[C@H]3[C@@H]3C=CC4=CC(=O)CC[C@@]4(C)[C@@H]32)cc(OC)c1OC [Compound No. 24, (3,4,5-Trimethoxy-phenyl)-carbamic acid dydrogesterone-11β-yl ester]
- Ki [1]: 200 nM
- activation at 0.1 µM [2]: 0%
- inhibition at 0.1 µM [2]: 88%
- IC50 [2]: 50.1 nM

Compound: CCO[C@]1(C(C)=O)CC[C@H]2[C@@H]3C=CC4=CC(=O)C5CC5[C@@]4(C)[C@@H]3[C@@H](OC(=O)Nc3cccc(OC)c3)C[C@@]21C (stereo partly shown) [Compound No. 29]
- Ki [1]: 398 nM
- activation at 0.1 µM [2]: 0%
- inhibition at 0.1 µM [2]: 87%
- IC50 [2]: 5.01 nM

Compound: CC(=O)[C@H]1CC[C@H]2[C@@H]3C=CC4=CC(=O)CC[C@@]4(C)[C@@H]3[C@@H](OC(=O)Nc3cccc(/C=N/O)c3)C[C@]12C [Compound No. 32, [3-(Hydroxyimino-methyl)-phenyl]-carbamic acid dydrogesterone-11-yl ester]
- Ki [1]: 316 nM

Compound: CCO[C@]1(C(C)=O)CC[C@H]2[C@@H]3C=CC4=CC(=O)CC[C@@]4(C)[C@@H]3[C@@H](OC(=O)Nc3ccc4c(c3)OCO4)C[C@@]21C [Compound No. 34, Benzo[1,3]-dioxol-5-yl-carbamic acid 17-ethoxy-dydrogesterone-11β-yl este]
- Ki [1]: 126 nM
- activation at 0.1 µM [2]: 95%
- inhibition at 0.1 µM [2]: 5%

Compound: CC(=O)[C@H]1CC[C@H]2[C@@H]3C=CC4=CC(=O)CC[C@@]4(C)[C@@H]3[C@@H](OC(=O)Nc3ccc4cn[nH]c4c3)C[C@]12C [compound 41, (1H-Indazol-6-yl)-carbamic aciddydrogesterone-11-yl ester]
- Ki [1]: 316 nM
- activation at 0.1 µM [2]: 1%
- inhibition at 0.1 µM [2]: 96%
- IC50 [2]: 6.31 nM

Compound: CC(=O)[C@H]1CC[C@H]2[C@@H]3C=CC4=CC(=O)CC[C@@]4(C)[C@@H]3C(OC(=O)NCc3ccc4c(c3)OCO4)C[C@]12C (stereo partly shown) [compound 42, Benzo[1,3]dioxol-5-ylmethyl-carbamic acid dydrogesterone-11-yl ester]
- Human PR binding (pKi) [1]: 6.8
- PS [100 nM] (% stimulation) ([2]; T47D cells): 76.0%
- pEC50 ([2]; agonistic potency, T47D cells): 7.0
- PI [100 nM] (% inhibition) ([2]; T47D cells): 6.0%

Compound: COc1ccccc1N1CCN(C(=O)O[C@H]2C[C@]3(C)[C@@H](C(C)=O)CC[C@H]3[C@@H]3C=CC4=CC(=O)CC[C@@]4(C)[C@@H]32)CC1 [compound 43, 4-(2-Methoxy-phenyl)-piperazine-1-carboxylic aciddydrogesterone-11-yl ester]
- Ki [1]: ≥ 631 nM

Compound: CC(=O)[C@H]1CC[C@H]2[C@@H]3C=CC4=CC(=O)CC[C@@]4(C)[C@@H]3[C@@H](OC(=O)Nc3cnc4ccccc4c3)C[C@]12C [compound 51, Quinolin-3-yl-carbamic aciddydrogesterone-11-yl ester]
- Ki [1]: 398 nM
- activation at 0.1 µM [2]: 5%
- inhibition at 0.1 µM [2]: 59%
- IC50 [2]: 100 nM

Compound: COc1ccc(CNC(=O)O[C@H]2C[C@]3(C)[C@@H](C(C)=O)CC[C@H]3[C@@H]3C=CC4=CC(=O)CC[C@@]4(C)[C@@H]32)cc1 [compound 55, (4-Methoxy-benzyl)-carbamicacid dydrogesterone-11-yl ester]
- Ki [1]: 100 nM
- activation at 0.1 µM [2]: 143%
- inhibition at 0.1 µM [2]: -79%
- EC50 [2]: 50.1 nM

Compound: CC(=O)[C@H]1CC[C@H]2[C@@H]3C=CC4=CC(=O)CC[C@@]4(C)[C@@H]3[C@@H](OC(=O)Nc3cccc(OC(F)(F)F)c3)C[C@]12C [compound 63, (3-Trifluoromethoxy-phenyl)-carbamic acid dydrogesterone-11-yl ester]
- Ki [1]: ≥ 631 nM

Compound: CC(=O)[C@H]1CC[C@H]2[C@@H]3C=CC4=CC(=O)CC[C@@]4(C)[C@@H]3[C@@H](OC(=O)NCc3ccc(S(C)(=O)=O)cc3)C[C@]12C [compound 67, (4-Methanesulfonyl-benzyl)-carbamic acid dydrogesterone-11-yl ester]
- Ki [1]: ≥ 631 nM

Compound: CC(=O)[C@H]1CC[C@H]2[C@@H]3C=CC4=CC(=O)CC[C@@]4(C)[C@@H]3[C@@H](OC(=O)Nc3cccc(C#N)c3)C[C@]12C [compound 71, (3-Cyano-phenyl)-carbamic aciddydrogesterone-11-yl ester]
- Ki [1]: ≥ 631 nM

Compound: CC(=O)[C@H]1CC[C@H]2[C@@H]3C=CC4=CC(=O)CC[C@@]4(C)[C@@H]3[C@@H](OC(=O)Nc3ccc4c(=O)cc(C)oc4c3)C[C@]12C [compound 77, (2-Methyl-4-oxo-4H-chromen-7-yl)-carbamic aciddydrogesterone-11-yl ester]
- Ki [1]: ≥ 631 nM

Compound: CC(=O)[C@H]1CC[C@H]2[C@@H]3C=CC4=CC(=O)CC[C@@]4(C)[C@@H]3[C@@H](OC(=O)NCc3cccc(F)c3)C[C@]12C [compound 78, (3-Fluoro-benzyl)-carbamic aciddydrogesterone-11-yl ester]
- Ki [1]: 398 nM

Compound: CC(=O)c1cccc(NC(=O)OC2C[C@]3(C)[C@@H](C(C)=O)CC[C@H]3[C@@H]3C=CC4=CC(=O)CC[C@]4(C)[C@@H]23)c1 (stereo partly shown) [compound 81, (3-Acetyl-phenyl)-carbamic aciddydrogesterone-11-yl ester]
- Human PR binding (pKi) [1]: 6.6
- PS [100 nM] (% stimulation) ([2]; T47D cells): 1.0%
- PI [100 nM] (% inhibition) ([2]; T47D cells): 72.0%
- pIC50 ([2]; antagonistic potency against 1 nM Dydrogesterone, T47D cells): 7.3

Compound: CC(=O)Nc1ccc(NC(=O)OC2C[C@]3(C)[C@@H](C(C)=O)CC[C@H]3[C@@H]3C=CC4=CC(=O)CC[C@@]4(C)[C@H]23)cc1 (stereo partly shown) [compound 82, (4-Acetylamino-phenyl)-carbamicacid dydrogesterone-11-yl ester]
- Human PR binding (pKi) [1]: 6.6
- PS [100 nM] (% stimulation) ([2]; T47D cells): 0.0%
- PI [100 nM] (% inhibition) ([2]; T47D cells): 40.0%

Compound: CC(=O)[C@H]1CC[C@H]2[C@@H]3C=CC4=CC(=O)CC[C@@]4(C)[C@@H]3[C@@H](OC(=O)Nc3ccc(F)c(C#N)c3)C[C@]12C [compound 85, (3-Cyano-4-fluoro-phenyl)-carbamic acid dydrogesterone-11-yl ester]
- Ki [1]: 501 nM

Compound: CC(=O)[C@H]1CC[C@H]2[C@@H]3C=CC4=CC(=O)CC[C@@]4(C)[C@@H]3[C@@H](OC(=O)Nc3ccc4[nH]ccc4c3)C[C@]12C [compound 91, (1H-Indol-5-yl)-carbamic aciddydrogesterone-11-yl ester]
- Ki [1]: ≥ 631 nM
- activation at 0.1 µM [2]: 1%
- inhibition at 0.1 µM [2]: 58%
- IC50 [2]: 100 nM

Compound: CSc1cccc(NC(=O)O[C@H]2C[C@]3(C)[C@@H](C(C)=O)CC[C@H]3[C@@H]3C=CC4=CC(=O)CC[C@@]4(C)[C@@H]32)c1 [compound 92, (3-Methylsulfanyl-phenyl)-carbamic acid dydrogesterone-11-yl ester]
- Ki [1]: ≥ 631 nM
- activation at 0.1 µM [2]: 1%
- inhibition at 0.1 µM [2]: 55%
- IC50 [2]: 100 nM

Reference: patent US20080249075A1, “C11 Modified Retrosteroids as Progesterone Receptor Modulator Compounds” (Solvay Pharmaceuticals GmbH, priority 2007, published 2008)
